Assay [1] relates to human small cell lung cancer cell lines (SCLC-21H). The assay is described as follows: MTS cytotoxicity on SCLC-21H cells. Format: cell-based. The conditions noted are these: 50 μM, 72 h. How it is done: (§1) The following was a study of the cytotoxicity study of compound of 2-(substituted phenylhetero)aromatic formic acid of formula (I) and its derivatives as FTO inhibitors on solid tumors including human small cell lung cancer cell lines (SCLC-21H), human bone marrow rhabdomyosarcoma cell line (RH30) and pancreatic cancer cell Line (KP3):
(§2) SCLC-21H, RH30 and KP3 solid tumor cell lines were cultivated separately, and seeded at 5000 cells per well in 96 well plates. The cells were cultured until the cells were adherent, and different compounds were added and the cultivation was continued for 72 hours. 10 uL of MTS solution was directly added and the mixture was incubated for 4 h, and the absorbance was measured at 490 nm. The inhibition rate was calculated by using the DMSO group as a control.

Another assay deals with FTO (Homo sapiens (Human), UniProt Q9C0B1). The assay is described as follows: FTO enzyme inhibition (m6A dsDNA substrate, DpnII digestion, gel readout). The conditions noted are these: for Inhibition rate: in vitro inhibition rate on FTO, compound at 50 μM; for inhibition at 50 µM: read-out: Inhibition rate. It is filed as biochemical. The method, then:
High purity FTO protein was obtained by nickel column affinity chromatography purification.
After incubation at room temperature for 2 hrs, the reaction system was then slowly heated to 65° C. to inactivate, and 1 μM 39 nt of antisense strand DNA was added to anneal, thereby forming double strands. […] After Gel-Red dyeing, photos were taken with gel imaging system. The obtained band was subjected to gray scale reading to obtain inhibition rate.

The test system of assay [2] is human bone marrow rhabdomyosarcoma cell line (RH30). Put plainly: MTS cytotoxicity on RH30 cells. Format: cell-based. The conditions noted are these: 50 μM, 72 h. How it is done:
as §1, §2

SMILES strings stand for the structures.

FTO, sequence (Q9C0B1 whole entry): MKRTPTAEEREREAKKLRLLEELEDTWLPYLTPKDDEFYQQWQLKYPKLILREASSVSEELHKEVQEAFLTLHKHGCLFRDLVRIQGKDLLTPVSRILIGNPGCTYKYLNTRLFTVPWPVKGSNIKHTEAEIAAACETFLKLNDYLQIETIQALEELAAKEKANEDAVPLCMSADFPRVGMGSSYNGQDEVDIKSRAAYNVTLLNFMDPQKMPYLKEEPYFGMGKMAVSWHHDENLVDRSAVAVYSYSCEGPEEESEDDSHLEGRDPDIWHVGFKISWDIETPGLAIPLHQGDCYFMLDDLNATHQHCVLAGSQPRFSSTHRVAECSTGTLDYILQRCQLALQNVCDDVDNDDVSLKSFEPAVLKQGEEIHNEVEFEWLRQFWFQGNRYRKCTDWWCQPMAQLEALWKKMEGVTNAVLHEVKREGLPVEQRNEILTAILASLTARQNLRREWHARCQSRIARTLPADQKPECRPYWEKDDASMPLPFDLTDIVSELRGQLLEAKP

On to `Cc1noc(C)c1-c1cc(Cl)c(Nc2ccc([N+](=O)[O-])cc2C(=O)O)c(Cl)c1` [Compound 74], for which the “Inhibition rate (human small cell lung cancer SCLC-21H)” value in assay [1] was 38%. Besides, the Inhibition rate at FTO was determined as 75%. Also, the “Inhibition rate (human bone marrow rhabdomyosarcoma cell RH30)” value in assay [2] stood at 32%.

`COc1cc(-c2cn[nH]c2)cc(OC)c1Nc1ccccc1C(=O)O` [Compound 41]: the “Inhibition rate (human small cell lung cancer SCLC-21H)” value in assay [1] was 35%. In addition, the “Inhibition rate (human bone marrow rhabdomyosarcoma cell RH30)” value in assay [2] is given as 28%.

Regarding `O=C(NO)c1nccnc1Nc1c(Cl)cc(-c2cn[nH]c2)cc1Cl` [Compound 64], the “Inhibition rate (human small cell lung cancer SCLC-21H)” value in assay [1] is 24%. In addition, at FTO, the Inhibition rate is given as 68%. Further, the “Inhibition rate (human bone marrow rhabdomyosarcoma cell RH30)” value in assay [2] came out at 30%.

For `Cc1cc(-c2c(C)noc2C)c(C)cc1Nc1ccccc1C(=O)O` [Compound 48], in assay [1], the “Inhibition rate (human small cell lung cancer SCLC-21H)” value stood at 63%. Besides, the “Inhibition rate (human bone marrow rhabdomyosarcoma cell RH30)” value in assay [2] came out at 51%.

For `O=C(O)c1cc(F)ccc1Nc1c(Cl)cc(-c2cn[nH]c2)cc1Cl` [Compound 73], on FTO, the Inhibition rate worked out at 84%.

Consider `O=C(O)c1ccc(-c2cc(Cl)c(Nc3ccccc3C(=O)O)c(Cl)c2)s1` [Compound 10], for which, on FTO, the IC50 is less than 1 µM.

For the molecule `COc1cc(-c2cc[nH]n2)cc(OC)c1Nc1ccccc1C(=O)O` [Compound 42], the “Inhibition rate (human small cell lung cancer SCLC-21H)” value in assay [1] is 33%. Also, the Inhibition rate at FTO stood at 79%. In addition, the “Inhibition rate (human bone marrow rhabdomyosarcoma cell RH30)” value in assay [2] turned out to be 33%.

`O=C(O)c1ccccc1Nc1c(Cl)cc(N2CCOCC2)cc1Cl` [Compound 55]: on FTO, the half-inhibitory concentration (IC50) is less than 5 µM and the Inhibition rate was 100%.

In the case of `O=C(NO)c1cccnc1Nc1c(Cl)cc(-c2ccncc2)cc1Cl` [Compound 62], the “Inhibition rate (human small cell lung cancer SCLC-21H)” value in assay [1] is on record as 84%. Also, on FTO, the Inhibition rate is reported as 28%. In assay [2], the “Inhibition rate (human bone marrow rhabdomyosarcoma cell RH30)” value stood at 87%.

Take `O=C(O)c1nccnc1Nc1c(Cl)cc(-c2ccncc2)cc1Cl` [Compound 66]: the “Inhibition rate (human small cell lung cancer SCLC-21H)” value in assay [1] is 48%. For the same molecule, the “Inhibition rate (human bone marrow rhabdomyosarcoma cell RH30)” value in assay [2] was 53%.

With `O=C(O)c1cc(F)ccc1Nc1c(Cl)cc(-c2ccc(F)cc2)cc1Cl` [Compound 72], the “Inhibition rate (human small cell lung cancer SCLC-21H)” value in assay [1] is reported as 64%. The “Inhibition rate (human bone marrow rhabdomyosarcoma cell RH30)” value in assay [2] came out at 37%.

`O=C(O)c1ccccc1Nc1c(Cl)cc(-c2ccn[nH]2)cc1Cl` [Compound 2]: on FTO, the IC50 was less than 5 µM and the inhibition at 50 µM stood at 80%.

`Cc1cc(-c2ccncc2)cc(C)c1Nc1ccccc1C(=O)O` [Compound 46]: the “Inhibition rate (human small cell lung cancer SCLC-21H)” value in assay [1] was found to be 66%. The same molecule gave an Inhibition rate at FTO of 100%. Besides, in assay [2], the “Inhibition rate (human bone marrow rhabdomyosarcoma cell RH30)” value turned out to be 41%.

Regarding `O=C(O)c1cccnc1Nc1c(Cl)cc(-c2ccccc2)cc1Cl` [Compound 60], the “Inhibition rate (human small cell lung cancer SCLC-21H)” value in assay [1] amounted to 71%. Moreover, the “Inhibition rate (human bone marrow rhabdomyosarcoma cell RH30)” value in assay [2] came out at 72%.

In the case of `Cc1noc(C)c1-c1cc(Cl)c(Nc2ccccc2C(=O)O)c(Cl)c1` [Compound 29], in assay [1], the “Inhibition rate (human small cell lung cancer SCLC-21H)” value was found to be 46%. Further, the “Inhibition rate (human bone marrow rhabdomyosarcoma cell RH30)” value in assay [2] is 47%.

As to `C#CCOC(=O)c1ccccc1Nc1c(Cl)cc(-c2c(C)noc2C)cc1Cl` [Compound 84], the inhibition at 50 µM at FTO came to 34%.

On to `CCN(CC)CCOC(=O)c1ccccc1Nc1c(Cl)cc(-c2c(C)noc2C)cc1Cl` [Compound 86], for which the inhibition at 50 µM on FTO was found to be 31%.

On FTO, `O=C(O)c1ccccc1Nc1c(Cl)cc(C2CCNCC2)cc1Cl` [Compound 56] gave an Inhibition rate of 45%.

On to `Cc1noc(C)c1-c1cc(Cl)c(Nc2nccnc2C(=O)O)c(Cl)c1` [Compound 65], for which the “Inhibition rate (human small cell lung cancer SCLC-21H)” value in assay [1] turned out to be 52%. In addition, the Inhibition rate at FTO is given as 88%. For the same molecule, the “Inhibition rate (human bone marrow rhabdomyosarcoma cell RH30)” value in assay [2] came to 42%.

As to `O=C(O)c1nccnc1Nc1c(Cl)cc(-c2ccoc2)cc1Cl` [Compound 68], the “Inhibition rate (human small cell lung cancer SCLC-21H)” value in assay [1] is on record as 68%. The “Inhibition rate (human bone marrow rhabdomyosarcoma cell RH30)” value in assay [2] was determined as 56%.

Take `CCCOCCOC(=O)c1ccccc1Nc1c(Cl)cc(-c2c(C)noc2C)cc1Cl` [Compound 85]: on FTO, the inhibition at 50 µM turned out to be 30%.

Turning to `O=C(O)c1ccccc1Nc1c(F)cc(-c2cn[nH]c2)cc1F` [Compound 36], the Inhibition rate on FTO is on record as 28%.

One may read the IC50 as the midpoint of a concentration-inhibition curve. The term inhibition denotes the drop in the measured response relative to a control, in per cent.

These data come from patent US11555009B2, “2-(substituted benzene matrix) aromatic formate FTO inhibitor, preparation method therefor, and applications thereof” (SHANGHAI INSTITUTE OF MATERIA MEDICA, CHINESE ACADEMY OF …, priority 2017, dated 2023).
